# Measurements: patent publication US10189809B2, “SGC stimulators” (Ironwood Pharmaceuticals, Inc., priority 2010, dated 2019)
# Like-named read-outs stand apart in the source and are kept apart here.
# Assays:
# [1] = biological target: T1, soluble guanylate cyclase (sGC) (Homo sapiens (Human), UniProt Q02108+Q02153); test: sGC-HEK-cGMP assay run with SNP incubation (HEK WC assay); assay type: cell-based; conditions: for HEK WC Assay (fold increase at 30 μM in the presence of 10 μM SNP): compound at 30 μM; for EC50: in the presence of 10 uM SNP
# Summary of the method: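 HEK293 cells with endogenous sGC were pretreated with 0.5 mM IBMX for 15 min at 37 °C, then exposed to test compound plus sodium nitroprusside for 10 min at 37 °C.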
# [2] = biological target: T1, soluble guanylate cyclase (sGC); test: sGC-HEK-cGMP assay run in the absence of SNP (HEK WC assay); assay type: cell-based; conditions: compound at 30 μM, absence of SNP
# Experimental: Human embryonic kidney cells (HEK293), endogenously expressing soluble guanylate cyclase (sGC), were used to evaluate the activity of test compounds. Compounds stimulating the sGC receptor should cause an increase in the intracellular concentration of cGMP. HEK 293 cells were seeded in Dulbecco's Modification of Eagle's Medium supplemented with fetal bovine serum (10% final) and L-glutamine (2 mM final) in a 200 μL volume at a density of 1×10^5 cells/well in a poly-D-lysine coated 96 well flat bottom plate and grown overnight at 37° C. Medium was aspirated and cells were washed with 1× Hank's Buffered Saline Salt Solution (200 μL). Cells were then incubated for 15 minutes at 37° C. with 0.5 mM 3-isobutyl-1-methylxanthine (200 μL). Test article was then added to the assay mixture (2 μL) and incubated at 37° C. for 10 minutes. After the 10 minute incubation, the assay mixture was aspirated and 0.1M HCl (200 μL) was added to the cells. The plate was incubated at 4° C. for 30 minutes in the 0.1M HCl to stop the reaction and lysed the cells. The plates were then centrifuged at 1,200 g for 5 minutes at room temperature. Supernatants were collected and transferred to a new flat bottom 96 well plate for analysis. Vehicle controls were carried out using DMSO (1%). A known sGC stimulator, BAY 41-2272, was used as the positive control. Samples were diluted with an equal volume of 1 M Ammonium Acetate (pH 7) to neutralize samples for better chromatography. A 2× cGMP standard curve was prepared in 0.1 M HCl and then diluted with an equal volume of 1 M Ammonium Acetate, with the following final concentrations in nM: 1024, 512, 256, 128, 64, 32, 16, 8, 4, 2, 1. cGMP concentrations were determined from each sample using the LC/MS conditions (Table 2 below) and calculated standard curve. EC50 values were calculated from concentration-response curves generated with GraphPad Prism Software.
# [3] = read-out: HEK WC Assay (% Emax at 1 μM with 10 uM SNP)
# [4] = read-out: HEK WC Assay (% Emax at 10 μM with 10 uM SNP)
# [5] = read-out: HEK WC Assay (% Emax at 30 μM with 10 uM SNP)
# T1 sequence (Q02153 whole entry): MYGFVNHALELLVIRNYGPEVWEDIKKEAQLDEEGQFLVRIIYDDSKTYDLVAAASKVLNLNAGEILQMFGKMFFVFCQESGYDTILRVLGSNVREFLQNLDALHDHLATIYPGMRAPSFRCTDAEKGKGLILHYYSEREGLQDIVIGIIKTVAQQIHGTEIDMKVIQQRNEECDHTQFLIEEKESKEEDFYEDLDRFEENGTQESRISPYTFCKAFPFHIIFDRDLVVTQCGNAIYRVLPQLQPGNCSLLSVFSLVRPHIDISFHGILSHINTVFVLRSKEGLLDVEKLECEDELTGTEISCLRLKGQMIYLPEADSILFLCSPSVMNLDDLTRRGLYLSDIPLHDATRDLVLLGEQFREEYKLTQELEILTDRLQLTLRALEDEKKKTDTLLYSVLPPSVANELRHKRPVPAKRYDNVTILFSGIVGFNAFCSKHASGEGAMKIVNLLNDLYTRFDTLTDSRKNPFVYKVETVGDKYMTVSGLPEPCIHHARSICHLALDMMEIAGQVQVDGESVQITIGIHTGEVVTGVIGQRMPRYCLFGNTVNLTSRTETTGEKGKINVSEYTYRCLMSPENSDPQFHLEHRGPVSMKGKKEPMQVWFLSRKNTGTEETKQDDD
# T1 sequence (Q02108 whole entry): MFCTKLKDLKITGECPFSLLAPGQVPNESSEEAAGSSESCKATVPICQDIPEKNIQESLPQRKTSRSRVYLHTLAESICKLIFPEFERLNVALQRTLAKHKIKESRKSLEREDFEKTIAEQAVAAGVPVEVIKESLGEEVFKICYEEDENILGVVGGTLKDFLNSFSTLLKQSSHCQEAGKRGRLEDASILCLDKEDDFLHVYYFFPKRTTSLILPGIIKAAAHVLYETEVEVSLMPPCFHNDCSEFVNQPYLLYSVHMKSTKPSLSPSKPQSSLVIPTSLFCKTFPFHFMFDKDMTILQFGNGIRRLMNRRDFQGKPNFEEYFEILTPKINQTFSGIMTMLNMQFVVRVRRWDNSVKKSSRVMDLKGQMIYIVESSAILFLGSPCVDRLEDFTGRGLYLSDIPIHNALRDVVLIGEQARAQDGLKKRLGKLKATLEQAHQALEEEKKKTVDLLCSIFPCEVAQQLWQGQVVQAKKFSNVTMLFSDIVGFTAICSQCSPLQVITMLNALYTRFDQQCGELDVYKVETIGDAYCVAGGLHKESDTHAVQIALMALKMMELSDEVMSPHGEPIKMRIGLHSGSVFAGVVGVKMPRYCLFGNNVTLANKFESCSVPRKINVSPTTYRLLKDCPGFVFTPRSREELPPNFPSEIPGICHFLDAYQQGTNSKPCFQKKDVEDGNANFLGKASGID
Structure (SMILES),HEK WC Assay (fold increase at 30 μM in the presence of 10 μM SNP) [1],EC50 [1] [µM],"Emax [1, 3] [%]","Emax [1, 4] [%]","Emax [1, 5] [%]",HEK WC Assay (fold increase at 30 μM in the absence of SNP) [2],Emax at 10 µM ([1]; read-out: HEK WC Assay (% Emax at 10 μM/with 10 uM SNP)) [%],Emax at 30 µM ([1]; read-out: HEK WC Assay (% Emax at 30 μM/with 10 uM SNP)) [%]
Cc1cccc(C(=O)Nc2cnc(-c3cc(-c4ccon4)n(Cc4ccccc4F)n3)nc2N)c1 [Compound I-183],D (D = 5 to <10 fold increase),< 20,60 to 80,100 to 120,80 to 100,E (E = 10 to <20 fold increase),,
Nc1nc(-c2cc(-c3ccon3)n(Cc3ccccc3F)n2)ncc1NC(=O)c1ccon1 [Compound I-175],E (E = 10 to <20 fold increase),< 20,60 to 80,80 to 100,100 to 120,E (E = 10 to <20 fold increase),,
Fc1ccccc1Cn1nc(-c2ccccn2)cc1-c1cnco1 [Compound I-285],D (D = 5 to <10 fold increase),,,20 to 40,20 to 40,C (C = 2 to <5 fold increase),,
CC(F)(F)C(=O)Nc1cnc(-c2cc(-c3ccon3)n(Cc3ccccc3F)n2)nc1N [Compound I-226],F (F = 20 to <30 fold increase),< 20,40 to 60,80 to 100,60 to 80,E (E = 10 to <20 fold increase),,
CCOc1cnc(-c2cc(-c3ncccn3)nn2Cc2ccccc2F)o1 [Compound I-292],B (B = 1 to <2 fold increase),,,0 to 10,0 to 10,B (B = 1 to <2 fold increase),,
CN(C(=O)c1ccccc1)c1cnc(-c2cc(-c3ccon3)n(Cc3ccccc3F)n2)nc1N [Compound I-228],E (E = 10 to <20 fold increase),20 to 40,10 to 20,40 to 60,40 to 60,C (C = 2 to <5 fold increase),,
CC(C)=CC(=O)Nc1cnc(-c2cc(-c3ccon3)n(Cc3ccccc3F)n2)nc1N [Compound I-240],E (E = 10 to <20 fold increase),< 20,60 to 80,60 to 80,60 to 80,E (E = 10 to <20 fold increase),,
Oc1ccc(-c2cc(-c3ccccn3)nn2Cc2ccccc2F)cc1 [Compound I-310],,,,0 to 10,0 to 10,B (B = 1 to <2 fold increase),,
Cc1ccc(C(=O)Nc2cnc(-c3cc(-c4ccon4)n(Cc4ccccc4F)n3)nc2N)cc1 [Compound I-181],E (E = 10 to <20 fold increase),< 20,60 to 80,80 to 100,> 120,E (E = 10 to <20 fold increase),,
COc1cnc(-c2cc(-c3ccon3)n(Cc3ccccc3F)n2)nc1N [Compound I-173],D (D = 5 to <10 fold increase),100 to 300,0 to 10,40 to 60,10 to 20,C (C = 2 to <5 fold increase),,
O=c1[nH]c2cnc(-c3cc(-c4ccon4)n(Cc4ccccc4F)n3)nc2[nH]1 [Compound I-281],E (E = 10 to <20 fold increase),20 to 40,,60 to 80,40 to 60,D (D = 5 to <10 fold increase),,
CC1(C(=O)Nc2cnc(-c3cc(-c4ccon4)n(Cc4ccccc4F)n3)nc2N)CCCCC1 [Compound I-231],E (E = 10 to <20 fold increase),< 20,60 to 80,80 to 100,80 to 100,E (E = 10 to <20 fold increase),,
COc1ccc(CNc2nc(-c3cc(-c4ccon4)n(Cc4ccccc4F)n3)ncc2C(C)(C)O)cc1 [Compound I-135],D (D = 5 to <10 fold increase),,,10 to 20,10 to 20,C (C = 2 to <5 fold increase),0 to 10,0 to 10
